Assay results published in patent publication US20260076937A1, “COMPOSITION FOR PREVENTING OR TREATING AUTOIMMUNE DISEASES COMPRISING A BCAT1 INHIBITOR” (Seoul National University R&DB Foundation, priority 2024, published 2026).
Entries after “also recorded” stand apart in the source; their conditions may differ.

Key:
EAE mice = assay: Experimental autoimmune encephalomyelitis (EAE) model; assay type: in vivo, mouse
[1] = system: human CD4+ memory T cells; assay: Cholesterol analysis in cell lysates; assay type: cell-based; settings: TCR stimulation 3 days; Bi2 10 μM, statin 10 μM
Description: Total cholesterol amount in cultured cells was determined using a fluorometric Amplex™ Red Cholesterol Assay Kit (Thermo Fisher Scientific) according to the manufacturer's instructions.

mouse CD4+ naive T cells = assay: Th17/Th1 polarization of mouse CD4+ naive T cells from iLN; assay type: cell-based; settings: Bi2 10 μM
Description: (§1) Blocking BCAT1 with Bi2 attenuates Th17 differentiation in mice. In FIG. 13A mRNA expression of slc7a5 and bcat1 in mouse inguinal LN (iLN) cells was analyzed by RT-qPCR at 24 hours after TCR stimulation with anti-CD3/CD28 antibody (n=5). In FIG. 13B protein expression of BCAT1 in mouse inguinal LN cells was analyzed at 24 hours after stimulation of TCR with anti-CD3/CD28 antibody (n=5). In FIGS. 13C to 13D, mouse CD4^+ naive T cells derived from iLN were differentiated under […] or Th1 polarization conditions for 5 days in the presence of Bi2 (10 μM). The amounts of IFN-γ (c) and IL-17A (d) in the culture supernatants of Th1 and Th17 cells (n=5) are shown. In FIG. 13E, the cells of mouse iLN were stimulated with anti CD3/CD28 antibody in the presence of Bi2 (10 μM) for 24 hours. Cell lysates were immunoblotted for HIF-1α (n=3 independent experiments). Cells treated with COCl2 served as a positive control for HIF-1α. […] FIG. 13F is a representative histogram plot of intracellular HIF-1α in cells of mouse iLN. Cells were stimulated with anti CD3/CD28 antibody in the presence of Bi2 (10 μM) for 24 hours. […] The significance was indicated as *=p<0.05, **=p<0.01, ***=p<0.001, according to Mann-Whitney U test (a, c, d, f) or the two-tailed non-pair t test (b, e)).

HIF-1α = HIF-1α expression in TCR-stimulated mouse iLN cells; assay type: cell-based; settings: Bi2 10 μM, 24 hours
Description: as §1

[2] = system: TCR-stimulated human CD4+ naive T cells; assay: Cytokine ELISA of culture supernatants, CD4+ naive T cells; assay type: cell-based; settings: TCR stimulation 3 days
human CD4+ naive T cells = assay: Th17 polarization of human CD4+ naive T cells (RT-qPCR, ELISA); assay type: cell-based; settings: Th17-polarized conditions, 7 days, Bi2 10 μM
Description: BCAT1 regulates HIF-1α through mTORC1 activation in human CD4^+ T cells. FIG. 11A relates to ubiquitin-proteasome degradation of HIF1a and inhibitors for each step. In FIG. 11B, CD4+ memory T cells were pretreated with Bi2 (10 μM), CoCl2 (100 μM), VH298 (100 μM) or MG132 (5 μM) for 1 hour and stimulated with anti-CD3/CD28 coated microbeads for 8 hours. Cell lysates were immunoblotted against HIF-1α (n=3 independent experiments). In FIG. 11C, CD4+ memory T cells were stimulated for 24 hours and then treated with CHX (0.2 μg/ml) for the specified time before being obtained. Cell lysates were immunoblotted against HIF-1α (n=3 independent experiments). In FIG. 11D, CD4^+ memory T cells were stimulated for a specified time with or without Bi2 (10 μM). […] Cell viability was analyzed by 7-AAD staining using a flow cytometer (n=3). […] The mRNA levels of genes involved in leucine metabolism were quantified using RT-qPCR (n=3). […] The mRNA expression of the signature genes of Th17 (i-j) or Th1 (k-l) and cytokines was measured by RT-qPCR and ELISA, respectively (n=5-7). […]
Total RNA was prepared using TRIzol reagent (Life Technologies, Grand Island, NY), followed by cDNA synthesis (Promega, Madison, WI), followed by real-time quantitative RT-PCR with a CFX system (Bio-Rad, Hercules, CA) using SensiFAST SYBR® Lo-ROX (Bioline, London. UK). […]

[3] = Bi2 10 mg/kg or LβhL 1 g/kg i.p.
[4] = Bi2 10 mg/kg or LβhL 1 g/kg i.p., 10 mg/kg

For `O=C(NNS(=O)(=O)c1ccccc1C(F)(F)F)c1cc2cc(Cl)ccc2o1` [Bi2, BCATc inhibitor 2], the “HIF-1α expression in SCMC (immunoblot)” value (EAE mice; Bi2 10 mg/kg i.p.) was “decreased”, the “absolute number of Th17 cells co-producing IFN-γ/IL-17A” value (EAE mice; Bi2 10 mg/kg i.p.) was “significantly reduced” and the “absolute number of spinal cord mononuclear cells (SCMC)” value (EAE mice; Bi2 10 mg/kg i.p.) was “significantly lower”. The “proportion of CD4+ T-cells in SCMC” value (EAE mice; Bi2 10 mg/kg i.p.) was “significantly lower”, the “relative proportion of Th17 cells co-producing IFN-γ/IL-17A” value (EAE mice; Bi2 10 mg/kg i.p.) was “did not change” and the “cell infiltration in spinal cord” value (EAE mice; [3]) was “decrease”. The “nerve damage, spinal cord histology” value (EAE mice; [3]) was “decrease”, the “CD4+ T-cells producing IL-17A in spinal cord infiltrates and draining LN” value (EAE mice; [4]) was “preferentially reduced” and the “HIF-1α expression in CD4+ T-cells of spinal cord (intracellular staining)” value (EAE mice; [4]) was “preferentially in CD4+ T-cells in SCMC but not in CD11b+F4/80+ macrophages; also recorded: reduced”. The “EAE clinical score / severity” value (EAE mice; i.p. three times a week for 14 days, Bi2 10 mg/kg, LβhL 1 g/kg, 10 mg/kg) was “significantly lower; also recorded: alleviating the severity of disease”, the intracellular cholesterol [1] was “slight increase; also recorded: significantly increased” and the IFN-γ production (mouse CD4+ naive T cells; Th1 polarization 5 days) was “failed to inhibit”. For the same compound, the “differentiation of Th17 cells (IL-17A)” value (mouse CD4+ naive T cells; Th17 polarization 5 days) was “preferentially inhibited; also recorded: attenuates”, the “TCR-induced HIF-1α expression in mouse LN T cells” value (HIF-1α) was “reduced” and the “IL-2 production by CD4+ naive T cells” value [2] was “not affected”. The IL-17A secretion (human CD4+ naive T cells) was “decreased” and the “mRNA levels of RORC and IL17A” value (human CD4+ naive T cells) was “significantly reduced”.
